The record followed here is PubChem BioAssay AID720547 (The Scripps Research Institute Molecular Screening Center, 2013).

Values joined by “and” are separate entries in the source; they are usually repeats but may differ in a detail not shown here. Identical values can stand only once. Active and inactive are the calls of the source.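 The calls were made as follows: active = compound flagged as a likely artifact in this counterscreen, with IC50 of 10 µM or lower; inactive = IC50 above 10 µM.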

For orientation: IC50 means the midpoint of a concentration-inhibition curve.

This test deals with HEK293 Gal4-VP16 luciferase reporter counterscreen, luminescence. Description: Gal4-VP16 luciferase reporter inhibitors, dose response, counter-screen for COUP-TFII inhibitor project, cell-based, luminescence, HEK293 (AID 720547;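 also: potency for lowering the luciferase signal driven by Gal4-VP16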). (In a reporter assay the amount or activity of a reporter protein is the signal.)
In the case of `Cn1nc(CC(=O)Nc2ccc3c(c2)OCCO3)c2ccccc2c1=O`, the IC50 was > 85.4 µM (inactive).
The value for `COc1ccc(NS(=O)(=O)c2ccc(-c3coc(C)n3)cc2)cc1OC` was > 85.4 µM (inactive); that for `O=C(Nc1ccncc1)c1ccc(Cl)c(S(=O)(=O)N2CCc3ccccc32)c1` was 60.6 µM (inactive); that for `COCCn1c(C)c(C)c2c(NCCc3ccccc3)ncnc21` was > 85.3 µM (inactive).
On to `OC[C@@H]1CN(Cc2ccc(-c3ccccc3)cc2)C[C@H](n2cnc3c(NC4CCCC4)ncnc32)O1`, for which the IC50 was 53.4 µM (inactive).
With `COC(=O)C1=C(c2ccc(-c3ccccc3)c(F)c2)C[C@@H]2CC[C@H]1N2C(=O)N1CCCC1`, the IC50 is > 85.4 µM (inactive).
The value for `COc1ccc(C(=O)Nc2ccccc2C(=O)N/N=C/c2ccc(O)c(OC)c2)cc1` was > 28.5 µM (inactive).
The value for `COc1ccc(Cl)cc1Nc1nc(-c2sc(NC(=O)C(C)(C)C)nc2C)cs1` was > 85.4 µM (inactive); that for `Fc1ccc(CN2CCN(c3ncc(Cc4ccccc4)cn3)CC2)c(Cl)c1` was > 85.3 µM (inactive).
The value for `CCN(CC)S(=O)(=O)c1ccc(/C=C/C(=O)Nc2ccc(Br)cc2F)cc1` was > 85.4 µM (inactive); that for `CC(Nc1ncnc2ccccc12)c1ccccc1` (stereo not drawn) was > 85.5 µM (inactive).
For `Oc1ccc(-c2n[nH]c(C(F)(F)F)c2-c2ccccc2)c(O)c1`, the IC50 was > 85.4 µM (inactive).
The value for `CC1Cc2cc(-c3csc(NC(=O)Cc4ccccc4)n3)ccc2N1S(C)(=O)=O` (stereo not drawn) was > 85.4 µM (inactive); that for `Nc1nc2ccccc2cc1C(=O)NCc1ccc(-c2ccccc2)cc1` was > 85.3 µM (inactive).
To `C[C@@H]1C[C@@H]([C@H](O)CC2CC(=O)NC(=O)C2)C(=O)[C@@H](C)C1` belongs > 85.4 µM (inactive); to `Cc1c(/C(O)=C2/C(=O)C(=O)N(CCN3CCOCC3)C2c2ccco2)cnn1-c1ccccc1` (stereo not drawn), 21.3 µM (inactive); to `Oc1ccc(CCNc2ncnc3ccc(Cl)cc23)cc1`, > 85.4 µM (inactive).
As for `CC1CC(C)(O)CC(C(O)CC2CC(=O)NC(=O)C2)C1=O` (stereo not drawn), the IC50 was > 85.3 µM (inactive).
To `CCOc1cccc(/C=N/NC(=S)Nc2ccccc2[N+](=O)[O-])c1O` belongs 20.4 µM (inactive); to `CCOc1cc(S(=O)(=O)NCc2ccncc2)ccc1Cl`, > 85.4 µM (inactive); to `Cn1c(=O)c2[nH]c(CCCCCCCCc3nc4ccccc4[nH]3)nc2n(C)c1=O`, > 28.5 µM (inactive).
To `CCOC(=O)c1c(C)[nH]c(C(=O)OCC(=O)Nc2sccc2C(N)=O)c1C` belongs 29.8 µM (inactive).
To `CCc1cc(-c2nnn(CCC3COCCO3)c2CC)ccc1-c1cn(Cc2ccc3ccccc3c2)nn1` (stereo not drawn) belongs > 85.4 µM (inactive).
On to `CC[n+]1c(C=C2C=C(C)OC(C)=C2)sc2ccccc21`, for which the IC50 is > 85.4 µM (inactive).
To `Cc1cc(C)c(CN2CCN(C(=O)Cn3cnc4c(NCc5ccccc5)ncnc43)CC2)c(C)c1` belongs > 85.4 µM (inactive); to `N=c1c2c(n(Cc3ccc(Cl)cc3)c3c1CCC3)CCC2`, 89 µM (inactive).
Regarding `CC(C)(C)c1ccc(CSc2cnn(C(C)(C)C)c(=O)c2Cl)cc1`, the IC50 is > 85.4 µM (inactive).
To `Cc1cc(NC2CCCC2)n2ncc(-c3ccccc3)c2n1` belongs 62.9 µM (inactive); to `Cc1ccc(-c2csc(NC(=O)C3CCN(S(=O)(=O)c4cccs4)CC3)n2)cc1`, > 85.4 µM (inactive); to `CC(=O)c1cccc(NS(=O)(=O)c2ccc(-c3cnc(C4CC4)o3)cc2)c1`, > 85.4 µM (inactive).
`Cc1nc2c(-c3ccccc3)cnn2c(N)c1-c1ccccc1`: the IC50 was 59.7 µM (inactive).
To `CCc1ccc(CN(C)C(=O)c2cc(COc3cccc4cnccc34)on2)cc1` belongs > 85.4 µM (inactive).
The value for `CCC1CCCCN1C(=O)c1cc(COc2ccc3ncccc3c2)on1` (stereo not drawn) was > 85.4 µM (inactive).
Take `CC1(C)CC(=O)C=C(c2ccc(-c3cnc4ccccc4c3)cc2)C1=O`: the IC50 was 12.5 µM (inactive).
With `COc1cc(N(C)C)ccc1C=c1c2ccccc2n2c1cc(-c1ccccc1)[n+]2C`, the IC50 is 26.3 µM (inactive).
With `N#CC(C#N)=C(Nc1ccc(F)cc1)SCc1cccc(Br)c1`, the IC50 is > 85.4 µM (inactive).
For `Oc1ccc(Oc2ccc3c(C(F)(F)F)cc(C(F)(F)F)nc3n2)cc1`, the IC50 is 37 µM (inactive).
To `Cc1cc(C(=O)NC2CCCc3c2cnn3-c2cccc(C)c2C)n(C)n1` (stereo not drawn) belongs > 85.4 µM (inactive); to `COc1cc(NC(=O)COc2cc(O)c3c(c2)OC(C)(C)CC3=O)cc(OC)c1OC`, > 28.5 µM (inactive); to `O=C(Cc1ccc(Cl)cc1Cl)Nc1ccncc1Cl`, > 85.4 µM (inactive).
The value for `CCCc1cc(=O)n2nc(N3CCC(C(=O)N4CCN(c5ccc(OC)cc5)CC4)CC3)sc2n1` was > 85.4 µM (inactive); that for `CCCc1ccc(C(=O)O/N=C(\N)c2ccccn2)cc1` was 36.7 µM (inactive); that for `CCOC(=O)C1CCCN(S(=O)(=O)c2ccc(S(=O)(=O)N(CC)CC)cc2)C1` (stereo not drawn) was > 85.4 µM (inactive).
The value for `CCN1/C(=C/c2ccc3cc(C)ccc3[n+]2CC)Sc2ccccc21` was 22 µM (inactive).
For `CC(C)(C)c1ccc(-c2cc(-c3ccccc3O)[nH]n2)cc1`, the IC50 was 36.6 µM (inactive).
Consider `CC(=O)Nc1ccc(SCC(=O)c2cc(C)n(Cc3cccs3)c2C)cc1`, for which the IC50 is > 85.4 µM (inactive).
To `COc1ccc(-c2csc(NC(=O)C3CCN(c4ncnc5sc(C)c(C)c45)CC3)n2)cc1OC` belongs 25.7 µM (inactive).
To `Cc1nn(C)c(C)c1/C=C/C(=O)c1ccc(Cl)cc1Cl` belongs > 85.4 µM (inactive); to `Cc1cc(/C=C2/SC(=S)N(c3cccc(Cl)c3)C2=O)c(C)n1-c1cccnc1`, > 85.4 µM (inactive).
The value for `CC(C)(C)c1ccc(-c2nnc3sc(-c4ccccn4)nn23)cc1` was > 85.4 µM (inactive); that for `CC(C)c1ccc(CN2CCN(C(=O)CSc3nnnn3C3CC3)CC2)cc1` was > 85.4 µM (inactive); that for `Cc1ccc(F)cc1NC(=O)Cc1nn(C)c(=O)c2ccccc12` was > 85.4 µM (inactive).
Take `O=c1c2ccccc2oc2cc(C#CC3(O)CCCCC3)ccc12`: the IC50 was 56.2 µM (inactive).
As for `O=C(NC1CCCCCCC1)c1cc(COc2ccc3ncccc3c2)on1`, the IC50 is > 85.4 µM (inactive).
To `CC(=O)c1ccc(N2CCN(C(=S)Nc3ccc(Oc4ccccc4)cc3)CC2)cc1` belongs > 85.4 µM (inactive).
To `CCN=c1scc(-c2ccc3c(c2)NC(=O)CO3)n1N=C1CCCC1` belongs > 85.4 µM (inactive).
Regarding `Cc1cc(C)c(S(=O)(=O)NCc2ccncc2)c(C)c1`, the IC50 is > 85.4 µM (inactive).
The value for `CCN(CC)C(=O)c1oc2ccc(S(=O)(=O)N3CC(C)CC(C)C3)cc2c1C` (stereo not drawn) was 72.3 µM (inactive).
To `CCOC(=O)N1CCC(NC(=O)C2CCCN(Cc3nc(-c4ccc(CC)cc4)oc3C)C2)CC1` (stereo not drawn) belongs 80.1 µM (inactive); to `CCCCCCn1c2c(c(=N)c3c1CCC3)CCC2`, > 85.4 µM (inactive); to `NC(=S)NN=C1c2cc(OCCN3CCOCC3)ccc2-c2ccc(OCCN3CCOCC3)cc21`, 12 µM (inactive).
The value for `COC(=O)C1CCCCN1C(=O)c1cc(COc2cccc3cnccc23)on1` (stereo not drawn) was > 85.4 µM (inactive); that for `CCCCOC(=O)c1[nH]c2c(c1C)C(=O)CC(c1cc(OC)c(OC)c(OC)c1)C2` (stereo not drawn) was > 85.4 µM (inactive); that for `C/C(=N\NC(N)=S)C1C2C3CC4C5CC(C42)C1C53` (stereo not drawn) was > 85.4 µM (inactive).
As to `COc1ccc(CCNc2ncnc3sc(C)cc23)cc1OC`, the IC50 is > 28.5 µM (inactive).
As for `COc1ccc(C2=Nn3c([n+](C)c4ccccc43)SC2)cc1`, the IC50 is > 85.4 µM (inactive).
Consider `O=c1[nH]c(O)c(N=Nc2ccc3c(c2)OCCO3)c(=O)[nH]1`, for which the IC50 was 40.4 µM (inactive).
To `NC(=O)c1c(-c2ccc(Cl)cc2Cl)csc1NC(=O)Cc1ccccc1` belongs > 85.4 µM (inactive).
For the compound `O=C(CSc1nnc(-c2cccnc2)s1)Nc1ccnc2ccccc12`, the IC50 was > 85.4 µM (inactive).
To `O=C(Nc1ccc(Oc2ccccc2)cc1)c1csc([C@H]2C[C@H](O)[C@@H](CO)O2)n1` belongs > 85.4 µM (inactive).
The value for `c1ccc(CNc2ncnc3ccccc23)cc1` was > 85.4 µM (inactive) and > 85.3 µM (inactive); that for `Cc1cc(C(=O)NC2CCCc3c2cnn3-c2ccc(C)c(C)c2)n(C)n1` (stereo not drawn) was > 85.4 µM (inactive).
The value for `CCOc1ccc(S(=O)(=O)NCc2ccncc2)cc1` was > 85.4 µM (inactive); that for `CC(C)(C)OC(=O)NCCCCCc1cn([C@@H](CO)C(=O)NCCCCCCCCCCC(=O)N2CCN(C(=O)OC(C)(C)C)CC2)nn1` was 13.3 µM (inactive).
`O=C1N(c2ccccc2)C[C@@H]2C[C@@H](c3cc4ccccc4o3)N3CCC[C@@]123`: the IC50 is > 85.4 µM (inactive).
Turning to `Fc1ccc(NC(=S)N2CCCN(c3ccc(C(F)(F)F)cn3)CC2)c(F)c1`, the IC50 was > 85.4 µM (inactive).
To `Clc1ccc(-n2ncc3c(NCCN4CCOCC4)ncnc32)cc1` belongs > 85.4 µM (inactive).
The value for `Cc1ccc(S(=O)(=O)CC2CSc3nc4ccccc4n32)cc1` (stereo not drawn) was > 85.4 µM (inactive); that for `Cc1[nH]nc(C(F)(F)F)c1N=NN1CCOCC1` was 51.6 µM (inactive); that for `COc1ccc2c(c1)[nH]c1c(N3CCN(Cc4ccc5c(c4)OCO5)CC3)ncnc12` was 39.6 µM (inactive).
The value for `CN(CC1CCCO1)S(=O)(=O)c1ccc(C(=O)Nc2nc3cc4c(cc3s2)OCO4)cc1` (stereo not drawn) was > 85.4 µM (inactive); that for `CCOC(=O)N1CCN(C(=O)CSCC(=O)Nc2nc(-c3ccc(-c4ccccc4)cc3)cs2)CC1` was > 28.4 µM (inactive); that for `COC(=O)c1ccc2nc(Nc3nc4ccc(F)cc4s3)sc2c1` was > 85.4 µM (inactive).
